Key:
[1] = system: S. epidermidis (KCCM35494); assay: Growth inhibition experiment in liquid medium (absorbance at 600 nm); format: cell-based, Staphylococcus epidermidis
Protocol: (§1) S. aureus (KCCM12256) and S. epidermidis (KCCM35494) distributed from the Korean Culture Center of Microorganisms were used. The medium for Staphylococci used a M9 salt supplemented with 2 mM MgSO4, 0.1 mM CaCl2), 1% (w/v) glucose, 1% (w/v) casamino acid, 1 mM thiamine HCl, and 0.05 mM nicotinamide. The thiamine-HCl solution and the nicotinamide solution were filtered using a filter having a pore size of 0.2 μm, and the other components were autoclaved at 121° C. for 15 minutes and used. After mixing the medium components according to their respective concentrations, the mixture was filtered again using a filter having a pore size of 0.2 μm.
(§2) In the growth inhibition experiment, the S. aureus and the S. epidermidis were seed-cultured at 37° C. and 200 rpm for 24 hours and then subcultured. After incubation up to the mid-exponential phase (OD600=2.5) through the subculture, the bacteria were inoculated into liquid media containing the agarooligosaccharide at concentrations of 0 mg/mL, 1 mg/mL, 2 mg/mL, and 4 mg/mL so that the initial absorbance (i.e., initial cell population) thereof at 600 nm was 0.01. Subsequently, each of the above was dispensed in 200 μl aliquots into a 96-well plate, and absorbance was measured while culturing the bacteria. […]

S. epidermidis [2] = assay: Number of viable Staphylococci over culture time (CFU count); format: cell-based, Staphylococcus epidermidis
Protocol: (§3) In order to observe changes in staphylococcal growth according to culture time after the addition of agarobiose, the number of viable Staphylococci was monitored for 16 hours or 32 hours. To this end, the initial cell concentration was adjusted to an average of about 6.5×10^6 CFU/mL for both S. aureus and S. epidermidis, and the experiment was carried out at agarobiose concentrations of 0, 2, and 4 mg/mL.
(§4) The same culture conditions as in the method of Example 1 were applied, except that agarobiose concentrations of 0, 2, and 4 mg/mL were applied. At a working volume of 10 mL, the number of viable cells instead of absorbance was measured. To this end, the original sample was taken at each time point, diluted to 10^−3 to 10^−6 using 0.85% physiological saline, and then dispensed onto a trypticase soy agar (TSA; BD Bioscience, Franklin Lakes, N.J.) medium. After 16 to 24 hours, colony-forming unit (CFU)/mL was calculated and converted based on a dilution factor.

S. aureus [3] = assay: LIVE/DEAD BacLight cell viability assay; format: cell-based, Staphylococcus aureus; settings: agarobiose 2 mg/mL, 8 hours post-treatment
Protocol: The effect of the addition of agarobiose on the survival of S. aureus was tested using an Invitrogen LIVE/DEAD BacLight bacterial viability kit. […] To this end, after adjusting the number of S. aureus in a liquid medium containing agarobiose at 2 mg/mL so that the absorbance at 600 nm was 0.5, the S. aureus was cultured at 37° C. and 200 rpm. At 0 and 8 hours after incubation, the cells were washed with 0.85% physiological saline, resuspended in PBS buffer, and stained in accordance with the kit's protocol. Equal volumes of SYTO® 9 and propidium iodide reagents included in the kit were added and then reacted for 15 minutes in the dark.

S. aureus [4] = assay: Number of viable Staphylococci over culture time (CFU count); format: cell-based, Staphylococcus aureus; settings: agarobiose concentrations of 2 mg/mL or more
Protocol: as §3, §4

S. aureus (KCCM12256) = assay: Growth inhibition experiment in liquid medium (absorbance at 600 nm); format: cell-based, Staphylococcus aureus; settings: for concentration at which growth was completely inhibited: liquid M9-based medium, 37° C., 200 rpm, OD600
Protocol: as §1
as §2, with “bacteria. The incubation and the absorbance measurement were performed using Synergy HTX Multi-Mode Reader commercially available from BioTek Instruments, Inc. The incubation was performed at 37° C. and 200 rpm, and the absorbance was measured at a wavelength of 600 nm.” for “bacteria.”
The growth inhibition test of Staphylococci was carried out in the same manner as in Example 1, except that AHG (1, 2, 4, and 8 mg/mL) was used instead of the agarooligosaccharide. […]

S. aureus [5] = assay: Disk diffusion assay; format: cell-based, Staphylococcus aureus; settings: 50 to 150 μg/disk, 37° C., 16 hours
Protocol: (§5) The disk diffusion assay is a common method of determining whether microbial growth is inhibited based on the diffusion of antibiotics in a disk. Accordingly, agarobiose was dispensed in an amount of 0 to 150 μg/disk on each disk to observe the growth of Staphylococci.
(§6) To this end, a solid medium for a disk diffusion assay having the same composition as in Example 1 was used, except that 1.5% agar was added to the liquid medium. […] First, the disks were prepared such that they contained agarobiose in an aqueous state in amounts of 0, 50, 100, and 150 μg/disk. Subsequently, a staphylococcal culture was streaked on the provided solid medium using a sterile cotton swab so that the Staphylococci were evenly distributed on the medium, and the prepared disks were placed on the solid medium inoculated with the bacteria. Subsequently, after culturing the bacteria at 37° C. for 16 hours, it was observed that a zone of inhibition appeared.

S. epidermidis [6] = assay: Disk diffusion assay; format: cell-based, Staphylococcus epidermidis; settings: 50 to 150 μg/disk, 37° C., 16 hours
Protocol: as §5, §6

[7] = liquid medium, OD600, 1, 2, 4 and 8 mg/mL tested

Compound: OC[C@H]1O[C@@H](O[C@H]2[C@H]3OC[C@@H]2OC(O)[C@H]3O)[C@H](O)[C@@H](O)[C@H]1O (mixture of isomers) [agarobiose]
- concentration at which growth was completely inhibited ([1]; liquid M9-based medium, 37° C., 200 rpm, OD600): 2 mg/mL
- decrease in number of viable cells from the initial number (S. epidermidis [2]; 2 mg/mL and 4 mg/mL, culturing for 16 to 32 hours, initial 6.5×10^6 CFU/mL): ≤ 1.5 log10 (CFU/mL)
- growth (viable cell count) (S. epidermidis [2]; agarobiose concentrations of 2 mg/mL or more): inhibited
- cell viability (green/red fluorescence) (S. aureus [3]): caused the death of S. aureus
- growth (viable cell count) (S. aureus [4]): inhibited
- concentration at which growth was completely inhibited (S. aureus (KCCM12256)): 2 mg/mL
- growth around disk (zone of inhibition) (S. aureus [5]): did not grow at all
- growth around disk (zone of inhibition) (S. epidermidis [6]): did not grow at all

Compound: O=C[C@@H](O)[C@@H]1OC[C@H](O)[C@H]1O [AHG, 3,6-anhydro-L-galactose]
- concentration at which growth was almost completely inhibited [1, 7]: 8 mg/mL
- concentration at which growth was almost completely inhibited (S. aureus (KCCM12256); [7]): 8 mg/mL

Compound: O=C[C@H](O)[C@@H](O)[C@@H](O)[C@H](O)CO [galactose, reference compound]
- growth inhibition (S. aureus (KCCM12256); [7]): not inhibited at all

Compound: OC[C@H]1OC(O)[C@H](O)[C@@H](O[C@@H]2O[C@H]3CO[C@@H]([C@@H]2O)[C@@H]3O)[C@H]1O (stereo partly drawn) [neoagarobiose, reference compound]
- concentration at which growth was completely inhibited (S. aureus (KCCM12256)): > 20 mg/mL
